Measurements from patent US20240252490A1, “Combination Therapies Comprising Kras Inhibitors and SPH2 Inhibitors” (HUYABIO International, LLC, priority 2022, published 2024).
Several values for one entry are separate records, joined by “and”; a condition that tells them apart may be missing. Equal values may be shown once. Read-outs that look alike come from different tables or passages of the source.

Assays:
[1] = test system: NCI-H1373-luc ICA tumor model; assay: in vivo anti-tumor efficacy, intra-carotid artery metastatic brain tumor model (bioluminescence); design: species or system Nu/Nu mice; conditions: for T/C / TGI: day 21, from log 10 Bioluminescence
Description: The objective of this Example is to evaluate the in vivo anti-tumor efficacy of AMG510 (positive control KRAS G12C inhibitor), MRTX 849 (positive control KRAS G12C inhibitor) and HBI-2438 (a KRAS G12C inhibitor of the invention) in NCH-H1373-luc ICA, an intra-carotid artery metastatic brain tumor model, in Nu/Nu mice. HBI-2438 (the compound of Formula Ia) was supplied by Huyabio International, LLC. This intra-carotid artery model is well recognized in the art for evaluating the ability of a target compound to treat metastatic brain tumor.
All the procedures related to animal handling, care and the treatment in the study were performed according to the guidelines approved by the Institutional Animal Care and Use Committee (IACUC) of WuXi AppTec, following the guidance of the Association for Assessment and Accreditation of Laboratory Animal Care (AAALAC). At the time of routine monitoring, the animals were checked daily for tumor growth and any effects of treatments on normal behavior such as mobility, food and water consumption (by looking only), body weight gain/loss (body weights were measured twice per week), eye/hair matting and any other abnormal effect as stated in the protocol. Death and observed clinical signs were recorded on the basis of the numbers of animals within each subset.
Methods: The NCI-H1373-luc tumor cells were maintained in medium supplemented with 10% heat inactivated fetal bovine serum at 37° C. in an atmosphere of 5% CO2 in air. The tumor cells were routinely subcultured twice weekly. The cells growing in an exponential growth phase were harvested and counted for tumor inoculation. Each mouse was inoculated with NCI-H1373-luc tumor cells (0.5×10^5) in 100 μL of PBS. The animals were randomized and treatments were started when the Bioluminescence signal reached 8*10^6. After grouping, the bioluminescence measurements were taken once per week with IVIS (Lumina II).
Each mouse was inoculated with NCI-H1373-luc tumor cells (0.5×10^5) in 100 μL of PBS. The animals were randomized and treatments were started when the Bioluminescence signal reached 8*10^6. After grouping, the bioluminescence measurements were taken once per week with IVIS (Lumina II).
Tumor growth inhibition rate for test articles in the NCI-H1373-luc model was calculated based on log 10 Bioluminescence measurement at day 21 after the start of treatment, as shown in Table 3.

[2] = test system: colorectal cancer xenograft model CR2528; assay: in vivo therapeutic efficacy, subcutaneous HuPrime colorectal cancer xenograft model (tumor volume); design: species or system female BALB/c Nude mice; conditions: Day 20
Description: The above test articles were administered as single agent or in specific combination settings as described in Table 4. […] HBI-2438 and HBI-2376 (the compound of Formula Ia and the compound of Formula IIa, respectively) were supplied by Huyabio International, LLC.
(c) Tumor Inoculation: Tumor fragments from stock mice were harvested and used for inoculation into mice. Each mouse was inoculated subcutaneously in the right flank with CR2528 model tumor fragment (2-3 mm in diameter) for tumor development on May 25, 2022.
(d) Randomization: The randomization started when the mean tumor size reached 160 mm^3. 99 mice were enrolled in the study. All animals were randomly allocated to 11 study groups, 9 mice in each group. Randomization was performed based on “Matched distribution” method/“Stratified” method (StudyDirector™ software, version 3.1.399.19)/randomized block design. The date of randomization was denoted as day 0 (Jun. 13, 2022).
(§1) Tumor volumes were measured twice per week after randomization in two dimensions using a caliper, and the volume was expressed in mm^3 using the formula: “V=(L×W×W)/2, where V is tumor volume, L is tumor length (the longest tumor dimension) and W is tumor width (the longest tumor dimension perpendicular to L). Dosing as well as tumor and body weight measurements were conducted in a Laminar Flow Cabinet. The body weights and tumor volumes were measured by using StudyDirector™ software (version 3.1.399.19).
The treatments on both primary and secondary studies were performed for 3 weeks. The primary study was terminated on Day 21 with plasma and tumor samples collection. For secondary analysis tumor samples were collected after the final dose and were transferred in a sterile tube, to be frozen into liquid nitrogen. All the frozen tumor samples were stored in −80° C.

[3] = assay type: in vivo; conditions: for BW change: Day 20 vs Day 0
Description: Observation and Data Collection: After tumor cells inoculation, the animals were checked daily for morbidity and mortality. During routine monitoring, the animals were checked for any effects of tumor growth and treatments on behavior such as mobility, food and water consumption, body weight gain/loss (body weights were measured twice per week after randomization), eye/hair matting and any other abnormalities. Mortality and observed clinical signs were recorded for individual animals in detail.
as §1

[4] = 30 mg/kg PO QD, day 0 after start of treatment

C=CC(=O)N1CCN(c2nc(=O)n(-c3c(C)ccnc3C(C)C)c3nc(-c4c(O)cccc4F)c(F)cc23)[C@@H](C)C1 [AMG-510, reference compound]
log 10 Bioluminescence (mean ± SEM) [1, 4]: 6.86 ± 0.09 | log 10 Bioluminescence (mean ± SEM) ([1]; 30 mg/kg PO QD, day 7): 6.12 ± 0.06 | log 10 Bioluminescence (mean ± SEM) ([1]; 30 mg/kg PO QD, day 14): 6.32 ± 0.25 | log 10 Bioluminescence (mean ± SEM) ([1]; 30 mg/kg PO QD, day 21): 6.69 and 6.69 ± 0.3 | T/C ([1]; 30 mg/kg PO QD): 79.3% | TGI ([1]; 30 mg/kg PO QD): 111.5%

C[C@@H]1OCC2(CCN(c3cnc(Sc4cccc(NC(=O)c5c(O)nc6n(c5=O)CCCC6)c4Cl)cn3)CC2)[C@@H]1N [HBI-2376, N-(3-((5-((3S,4S)-4-amino-3-methyl-2-oxa-8-azaspiro[4.5]decan-8-yl)pyrazin-2-yl)thio)-2-chlorophenyl)-2-hydroxy-4-oxo-6,7,8,9-tetrahydro-4H-pyrido[1,2-a]pyrimidine-3-carboxamide]
T/C ([2]; 5 mg/kg QD): 27.18% | TGI ([2]; 5 mg/kg QD): 72.82% | Tumor Volume (mean ± SEM) ([2]; 5 mg/kg QD): 469.69 ± 81.71 mm^3 | Day 0 BW (mean ± SEM) ([3]; 5 mg/kg QD): 22.79 ± 0.69 | Day 20 BW (mean ± SEM) ([3]; 5 mg/kg QD): 22.03 ± 1.05 | BW change ([3]; 5 mg/kg QD): −3.36% | Maximum mean BWL ([3]; 5 mg/kg QD, on Day 20): −3.36% on

C=CC(=O)N1C[C@@H]2C(=O)N(CCN(C)C)c3c(c4cc(Cl)c(-c5c(O)cccc5F)nc4n(-c4c(C)ccnc4C(C)C)c3=O)N2C[C@H]1C [HBI-2438]
T/C ([2]; 10 mg/kg QD): 84.37% | TGI ([2]; 10 mg/kg QD): 15.63% | Tumor Volume (mean ± SEM) ([2]; 10 mg/kg QD): 1458.01 ± 164.19 mm^3 | T/C ([2]; 30 mg/kg QD): 52.41% | TGI ([2]; 30 mg/kg QD): 47.59% | Tumor Volume (mean ± SEM) ([2]; 30 mg/kg QD): 905.6 ± 108.46 mm^3 | T/C ([2]; 100 mg/kg QD): 43.69% | TGI ([2]; 100 mg/kg QD): 56.31% | Tumor Volume (mean ± SEM) ([2]; 100 mg/kg QD): 754.97 ± 98 mm^3 | Day 0 BW (mean ± SEM) ([3]; 10 mg/kg QD): 22.32 ± 0.57 | Day 20 BW (mean ± SEM) ([3]; 10 mg/kg QD): 22.19 ± 0.81 | BW change ([3]; 10 mg/kg QD): −0.62% | Maximum mean BWL ([3]; 10 mg/kg QD, on Day 20): −0.62% on | Maximum mean BWL ([3]; 30 mg/kg QD): No BWL | Day 0 BW (mean ± SEM) ([3]; 30 mg/kg QD): 22.54 ± 0.61 | Day 20 BW (mean ± SEM) ([3]; 30 mg/kg QD): 23.89 ± 0.58 | BW change ([3]; 30 mg/kg QD): 6.12% | Maximum mean BWL ([3]; 100 mg/kg QD): No BWL | Day 0 BW (mean ± SEM) ([3]; 100 mg/kg QD): 21.91 ± 0.57 | Day 20 BW (mean ± SEM) ([3]; 100 mg/kg QD): 22.31 ± 0.71 | BW change ([3]; 100 mg/kg QD): 1.86% | log 10 Bioluminescence (mean ± SEM) ([1]; 15 mg/kg PO QD, day 0 after start of treatment): 6.86 ± 0.11 | log 10 Bioluminescence (mean ± SEM) ([1]; 15 mg/kg PO QD, day 7): 6.49 ± 0.14 | log 10 Bioluminescence (mean ± SEM) ([1]; 15 mg/kg PO QD, day 14): 6.44 ± 0.2 | log 10 Bioluminescence (mean ± SEM) ([1]; 15 mg/kg PO QD, day 21): 6.58 and 6.58 ± 0.21 | T/C ([1]; 15 mg/kg PO QD): 78.1% | TGI ([1]; 15 mg/kg PO QD): 118.2% | log 10 Bioluminescence (mean ± SEM) [1, 4]: 6.86 ± 0.1 | log 10 Bioluminescence (mean ± SEM) ([1]; 30 mg/kg PO QD, day 7): 6.09 ± 0.07 | log 10 Bioluminescence (mean ± SEM) ([1]; 30 mg/kg PO QD, day 14): 5.86 ± 0.12 | log 10 Bioluminescence (mean ± SEM) ([1]; 30 mg/kg PO QD, day 21): 6.00 and 6.00 ± 0.13 | T/C ([1]; 30 mg/kg PO QD): 71.2% | TGI ([1]; 30 mg/kg PO QD): 155.8% | log 10 Bioluminescence (mean ± SEM) ([1]; 100 mg/kg PO QD, day 0 after start of treatment): 6.86 ± 0.11 | log 10 Bioluminescence (mean ± SEM) ([1]; 100 mg/kg PO QD, day 7): 5.92 ± 0.09 | log 10 Bioluminescence (mean ± SEM) ([1]; 100 mg/kg PO QD, day 14): 6.04 ± 0.2 | log 10 Bioluminescence (mean ± SEM) ([1]; 100 mg/kg PO QD, day 21): 6.09 and 6.09 ± 0.24 | T/C ([1]; 100 mg/kg PO QD): 72.2% | TGI ([1]; 100 mg/kg PO QD): 150.0%

C=C(F)C(=O)N1CCN(c2nc(OC[C@@H]3CCCN3C)nc3c2CCN(c2cccc4cccc(Cl)c24)C3)C[C@@H]1CC#N [MRTX849, reference compound]
T/C ([2]; 100 mg/kg QD): 41.56% | TGI ([2]; 100 mg/kg QD): 58.44% | Tumor Volume (mean ± SEM) ([2]; 100 mg/kg QD): 718.22 ± 151.89 mm^3 | log 10 Bioluminescence (mean ± SEM) [1, 4]: 6.83 ± 0.14 | log 10 Bioluminescence (mean ± SEM) ([1]; 30 mg/kg PO QD, day 7): 6.38 ± 0.21 | log 10 Bioluminescence (mean ± SEM) ([1]; 30 mg/kg PO QD, day 14): 6.24 ± 0.18 | log 10 Bioluminescence (mean ± SEM) ([1]; 30 mg/kg PO QD, day 21): 6.01 and 6.01 ± 0.14 | T/C ([1]; 30 mg/kg PO QD): 71.3% | TGI ([1]; 30 mg/kg PO QD): 152.6%

C[C@@H]1OCC2(CCN(c3cnc(Sc4ccnc(N)c4Cl)c(N)n3)CC2)[C@@H]1N [TNO-155, reference compound]
T/C ([2]; 5 mg/kg QD): 53.02% | TGI ([2]; 5 mg/kg QD): 46.98% | Tumor Volume (mean ± SEM) ([2]; 5 mg/kg QD): 916.21 ± 100.32 mm^3
